Measured values from US9707229B2, “Compositions and methods for treating an infection” (CMPD LICENSING, LLC, priority 2015, dated 2017).

Key:
Format in all cases: cell-based
Morganella morganii = test: Expected efficacy of antibiotic agents; settings: Gram: neg
Streptococcus pyogenes = test: Expected efficacy of antibiotic agents; settings: Gram: pos
Proteus vulgaris = test: Expected efficacy of antibiotic agents; settings: Gram: neg
Brucella species = settings: expected efficacy; Gram: neg
Francisella tularensis = settings: expected efficacy; Gram: neg
Campylobacter jejuni = test: Expected efficacy of antibiotic agents; settings: Gram: neg
[1] = system: Klebsiella (Calymmatobacterium) granulomatis; test: Expected efficacy of antibiotic agents; settings: Gram: neg
Serratia marcescens = test: Expected efficacy of antibiotic agents; settings: Gram: neg
Streptococcus agalactiae = test: Expected efficacy of antibiotic agents; settings: Gram: pos
Providencia rettgeri = test: Expected efficacy of antibiotic agents; settings: Gram: neg
Vibrio cholerae = test: Expected efficacy of antibiotic agents; settings: Gram: neg
Corynebacterium jeikeium = test: Expected efficacy of antibiotic agents; settings: Gram: pos
Pseudomonas aeruginosa = test: Expected efficacy of antibiotic agents; settings: Gram: neg
Chlamydia psittaci = settings: expected efficacy; Gram: n/a
Neisseria meningitidis = test: Expected efficacy of antibiotic agents; settings: Gram: neg
Acinetobacter lwoffii = test: Expected efficacy of antibiotic agents; settings: Gram: neg
Klebsiella pneumoniae = test: Expected efficacy of antibiotic agents; settings: Gram: neg
Proteus mirabilis = test: Expected efficacy of antibiotic agents; settings: Gram: neg
Haemophilus influenzae = test: Expected efficacy of antibiotic agents; settings: Gram: neg
Enterococcus faecium = test: Expected efficacy of antibiotic agents; settings: Gram: pos
Bacteroides fragilis = test: Expected efficacy of antibiotic agents; settings: Gram: anaer
Enterobacter sakazakii = test: Expected efficacy of antibiotic agents; settings: Gram: neg
[2] = system: Staphylococcus epidermidis; test: Expected efficacy of antibiotic agents; settings: Gram: pos
Rickettsiae = settings: expected efficacy; Gram: neg
Klebsiella oxytoca = test: Expected efficacy of antibiotic agents; settings: Gram: neg
Providencia stuartii = test: Expected efficacy of antibiotic agents; settings: Gram: neg
Acinetobacter baumannii = test: Expected efficacy of antibiotic agents; settings: Gram: neg
Streptococcus pneumoniae = test: Expected efficacy of antibiotic agents; settings: Gram: pos
Chlamydia pneumoniae = test: Expected efficacy of antibiotic agents; settings: Gram: n/a
Chlamydia trachomatis = test: Expected efficacy of antibiotic agents; settings: Gram: n/a
Clostridium perfringens = settings: expected efficacy; Gram: anaer
Enterobacter cloacae = test: Expected efficacy of antibiotic agents; settings: Gram: neg
[3] = system: Acinetobacter calcoaceticus; test: Expected efficacy of antibiotic agents; settings: Gram: neg
Enterococcus faecalis = test: Expected efficacy of antibiotic agents; settings: Gram: pos
[4] = system: Staphylococcus aureus (MSSA); test: Expected efficacy of antibiotic agents; settings: Gram: pos
Citrobacter freundii = test: Expected efficacy of antibiotic agents; settings: Gram: neg
Bartonella bacilliformis = test: Expected efficacy of antibiotic agents; settings: Gram: neg
Bordetella pertussis = test: Expected efficacy of antibiotic agents; settings: Gram: neg
Mycoplasma pneumoniae = test: Expected efficacy of antibiotic agents; settings: Gram: n/a
Pseudomonas fluorescens = test: Expected efficacy of antibiotic agents; settings: Gram: neg
Clostridium difficile = test: Expected efficacy of antibiotic agents; settings: Gram: anaer
Legionella pneumophila = settings: expected efficacy; Gram: neg
Escherichia coli = test: Expected efficacy of antibiotic agents; settings: Gram: neg
Enterobacter aerogenes = test: Expected efficacy of antibiotic agents; settings: Gram: neg
Citrobacter diversus = test: Expected efficacy of antibiotic agents; settings: Gram: neg
[5] = system: Methicillin resistant staph aureus (MRSA); test: Expected efficacy of antibiotic agents; settings: Gram: pos
Moraxella catarrhalis = test: Expected efficacy of antibiotic agents; settings: Gram: neg
Candida species = test: Expected efficacy of antifungal agents
Shigella dysenteriae = test: Expected efficacy of antibiotic agents; settings: Gram: neg
Yersinia pestis = settings: expected efficacy; Gram: neg
Neisseria gonorrhoeae = test: Expected efficacy of antibiotic agents; settings: Gram: neg
Salmonella typhi = test: Expected efficacy of antibiotic agents; settings: Gram: neg
Shigella boydii = test: Expected efficacy of antibiotic agents; settings: Gram: neg
Shigella sonnei = test: Expected efficacy of antibiotic agents; settings: Gram: neg
Shigella flexneri = test: Expected efficacy of antibiotic agents; settings: Gram: neg
[6] = system: Haemophilus parainfluenzae; test: Expected efficacy of antibiotic agents; settings: Gram: neg

CC[C@H]1OC(=O)[C@H](C)[C@@H](O[C@H]2C[C@@](C)(OC)[C@@H](O)[C@H](C)O2)[C@H](C)[C@@H](O[C@@H]2O[C@H](C)C[C@H](N(C)C)[C@H]2O)[C@](C)(O)C[C@@H](C)CN(C)[C@H](C)[C@@H](O)[C@]1(C)O [Azithromycin]
efficacy against Morganella morganii (Morganella morganii): no
efficacy against Streptococcus pyogenes (Streptococcus pyogenes): yes
efficacy against Proteus vulgaris (Proteus vulgaris): no
efficacy against Brucella species (Brucella species): no
efficacy against Francisella tularensis (Francisella tularensis): no
efficacy against Campylobacter jejuni (Campylobacter jejuni): yes
efficacy against Klebsiella (Calymmatobacterium) granulomatis [1]: no
efficacy against Serratia marcescens (Serratia marcescens): no
efficacy against Streptococcus agalactiae (Streptococcus agalactiae): yes
efficacy against Providencia rettgeri (Providencia rettgeri): no
efficacy against Vibrio cholerae (Vibrio cholerae): yes
efficacy against Corynebacterium jeikeium (Corynebacterium jeikeium): no
efficacy against Pseudomonas aeruginosa (Pseudomonas aeruginosa): no
efficacy against Chlamydia psittaci (Chlamydia psittaci): yes
efficacy against Neisseria meningitidis (Neisseria meningitidis): yes
efficacy against Acinetobacter lwoffii (Acinetobacter lwoffii): no
efficacy against Klebsiella pneumoniae (Klebsiella pneumoniae): no
efficacy against Proteus mirabilis (Proteus mirabilis): no
efficacy against Haemophilus influenzae (Haemophilus influenzae): yes
efficacy against Enterococcus faecium (Enterococcus faecium): no
efficacy against Bacteroides fragilis (Bacteroides fragilis): no
efficacy against Enterobacter sakazakii (Enterobacter sakazakii): no
efficacy against Staphylococcus epidermidis [2]: yes
efficacy against Rickettsiae (Rickettsiae): yes
efficacy against Klebsiella oxytoca (Klebsiella oxytoca): no
efficacy against Providencia stuartii (Providencia stuartii): no
efficacy against Acinetobacter baumannii (Acinetobacter baumannii): no
efficacy against Streptococcus pneumoniae (Streptococcus pneumoniae): yes
efficacy against Chlamydia pneumoniae (Chlamydia pneumoniae): yes
efficacy against Chlamydia trachomatis (Chlamydia trachomatis): yes
efficacy against Clostridium perfringens (Clostridium perfringens): no
efficacy against Enterobacter cloacae (Enterobacter cloacae): no
efficacy against Acinetobacter calcoaceticus [3]: no
efficacy against Enterococcus faecalis (Enterococcus faecalis): no
efficacy against Staphylococcus aureus (MSSA) [4]: yes
efficacy against Citrobacter freundii (Citrobacter freundii): no
efficacy against Bartonella bacilliformis (Bartonella bacilliformis): yes
efficacy against Bordetella pertussis (Bordetella pertussis): yes
efficacy against Mycoplasma pneumoniae (Mycoplasma pneumoniae): yes
efficacy against Pseudomonas fluorescens (Pseudomonas fluorescens): no
efficacy against Clostridium difficile (Clostridium difficile): no
efficacy against Legionella pneumophila (Legionella pneumophila): yes
efficacy against Escherichia coli (Escherichia coli): no
efficacy against Enterobacter aerogenes (Enterobacter aerogenes): no
efficacy against Citrobacter diversus (Citrobacter diversus): no
efficacy against Methicillin resistant staph aureus (MRSA) [5]: no
efficacy against Moraxella catarrhalis (Moraxella catarrhalis): yes

C[C@@H]1[C@H](O)[C@@H](C)/C=C/C=C/CC/C=C/C=C/C=C/C=C/C(O[C@H]2O[C@H](C)[C@@H](O)[C@H](N)[C@@H]2O)CC2O[C@](O)(CC(O)C(O)CCC(O)CC(O)CC(O)CC(=O)O[C@H]1C)CC(O)C2C(=O)O (stereo partly shown) [Nystatin]
efficacy against Candida species (Candida species): yes

O=C(O)c1cn(C2CC2)c2cc(N3CCNCC3)c(F)cc2c1=O [Ciprofloxacin]
efficacy against Morganella morganii (Morganella morganii): yes
efficacy against Proteus vulgaris (Proteus vulgaris): yes
efficacy against Francisella tularensis (Francisella tularensis): yes
efficacy against Campylobacter jejuni (Campylobacter jejuni): yes
efficacy against Serratia marcescens (Serratia marcescens): yes
efficacy against Providencia rettgeri (Providencia rettgeri): yes
efficacy against Vibrio cholerae (Vibrio cholerae): yes
efficacy against Corynebacterium jeikeium (Corynebacterium jeikeium): no
efficacy against Pseudomonas aeruginosa (Pseudomonas aeruginosa): yes
efficacy against Neisseria meningitidis (Neisseria meningitidis): yes
efficacy against Klebsiella pneumoniae (Klebsiella pneumoniae): yes
efficacy against Proteus mirabilis (Proteus mirabilis): yes
efficacy against Haemophilus influenzae (Haemophilus influenzae): yes
efficacy against Enterococcus faecium (Enterococcus faecium): no
efficacy against Bacteroides fragilis (Bacteroides fragilis): no
efficacy against Staphylococcus epidermidis [2]: yes
efficacy against Rickettsiae (Rickettsiae): yes
efficacy against Klebsiella oxytoca (Klebsiella oxytoca): yes
efficacy against Providencia stuartii (Providencia stuartii): yes
efficacy against Shigella dysenteriae (Shigella dysenteriae): yes
efficacy against Chlamydia pneumoniae (Chlamydia pneumoniae): yes
efficacy against Yersinia pestis (Yersinia pestis): yes
efficacy against Neisseria gonorrhoeae (Neisseria gonorrhoeae): yes
efficacy against Salmonella typhi (Salmonella typhi): yes
efficacy against Citrobacter freundii (Citrobacter freundii): yes
efficacy against Bartonella bacilliformis (Bartonella bacilliformis): yes
efficacy against Pseudomonas fluorescens (Pseudomonas fluorescens): yes
efficacy against Legionella pneumophila (Legionella pneumophila): yes
efficacy against Escherichia coli (Escherichia coli): yes
efficacy against Shigella boydii (Shigella boydii): yes
efficacy against Enterobacter aerogenes (Enterobacter aerogenes): yes
efficacy against Shigella sonnei (Shigella sonnei): yes
efficacy against Citrobacter diversus (Citrobacter diversus): yes
efficacy against Methicillin resistant staph aureus (MRSA) [5]: no
efficacy against Shigella flexneri (Shigella flexneri): yes
efficacy against Haemophilus parainfluenzae [6]: yes
efficacy against Moraxella catarrhalis (Moraxella catarrhalis): yes
